The experiment concerns Raf-1^gof intestinal tumors. The note with it: for Log2 (fold) of luciferase activity relative to DMSO controls / Fold (luciferase activity relative to DMSO controls): ICCB compounds fed in vials to flies with one-day old Raf-1^gof tumors; for Log2 (fold) of luciferase activity relative to DMSO controls / Fold (luciferase activity relative to DMSO controls) / Log2 (fold) (luciferase activity, log2 of the fold difference relative to DMSO controls) / Fold (luciferase activity, fold difference relative to DMSO controls): assessed three days later; for Fold (luciferase activity relative to DMSO controls) / Fold (luciferase activity, fold difference relative to DMSO controls): averaged from multiple wells; for Log2 (fold) (luciferase activity, log2 of the fold difference relative to DMSO controls) / Fold (luciferase activity, fold difference relative to DMSO controls): screen of 480 ICCB compounds in vials, compounds fed to flies with one-day old Raf-1^gof tumors, esg-Gal4 luciferase; for Fold: luciferase relative to DMSO, fed three consecutive days in vials.

Setting [1] is: Table 3 summary of hits, Screen ICCB.

This is an account of results in US20130096067A1, “DROSOPHILA TUMOR STEM CELL MODEL AND USES THEREOF” (priority 2011, published 2013).
For Fold (luciferase activity relative to DMSO controls) in this document: test concentration or dose not given here.
For Fold (luciferase activity, fold difference relative to DMSO controls) in this document: test concentration or dose not given here.
For Log2 (fold) (luciferase activity, log2 of the fold difference relative to DMSO controls) in this document: test concentration or dose not given here.
For Log2 (fold) of luciferase activity relative to DMSO controls in this document: test concentration or dose not given here.

In the case of `CC1(C)CCC2=C(O1)c1ccccc1C(=O)C2=O` [beta-lapachone], the “Log2 (fold) of luciferase activity relative to DMSO controls” value is listed as 0.070 and the “Fold (luciferase activity relative to DMSO controls)” value is on record as 1.050 fold.
For `CC(C)(Oc1ccc(CCNC(=O)c2ccc(Cl)cc2)cc1)C(=O)O` [bezafibrate], in that order: −0.211 and 0.864 fold.
With `CO[C@H](C/C=C\C=C\CC/C=C/C[C@H](C)/C=C/C(=C\C(=O)O)CC(=O)O)/C(C)=C\C=C(/C)C(=O)O` [bongkrekic acid], the “Log2 (fold) of luciferase activity relative to DMSO controls” value is recorded as −0.102 and the “Fold (luciferase activity relative to DMSO controls)” value came to 0.932 fold.
Regarding `C[C@H]1CCC/C=C/[C@@H]2C[C@H](O)C[C@H]2[C@H](O)/C=C/C(=O)O1` [brefeldin A], the “Log2 (fold) (luciferase activity, log2 of the fold difference relative to DMSO controls)” value is reported as −0.422 and the “Fold (luciferase activity, fold difference relative to DMSO controls)” value is recorded as 0.746.
For `CCCCNc1cc(C(=O)O)cc(S(N)(=O)=O)c1Oc1ccccc1` [bumetanide], the “Log2 (fold) of luciferase activity relative to DMSO controls” value is recorded as −0.048 and the “Fold (luciferase activity relative to DMSO controls)” value is listed as 0.967 fold.
On to `CCCC[C@@H](C=O)NC(=O)[C@H](CC(C)C)NC(=O)OCc1ccccc1` [calpeptin], for which the “Log2 (fold) (luciferase activity, log2 of the fold difference relative to DMSO controls)” value is recorded as −0.235 and the “Fold (luciferase activity, fold difference relative to DMSO controls)” value was determined as 0.849.
On to `COC[C@@H]([C@H](O)[C@H](O)C(=O)NCC[C@H](C)c1nc(/C=C/C[C@@H]2O[C@]3(C[C@@H](O)[C@@H]2C)O[C@H]([C@H](C[C@H](O)[C@H](C)[C@H](O)[C@H](C)/C=C(C)/C(C)=C/C=C/C(C)=C\C#N)OC)[C@H](OP(=O)(O)O)C3(C)C)co1)N(C)C` [calyculin A, reference compound], for which the “Log2 (fold) (luciferase activity, log2 of the fold difference relative to DMSO controls)” value is given as −1.276 and the “Fold (luciferase activity, fold difference relative to DMSO controls)” value amounted to 0.413. The molecule further returned a Fold under setting [1] of 0.413 fold.
Consider `CC[C@@]1(O)C(=O)OCc2c1cc1n(c2=O)Cc2cc3ccccc3nc2-1` [camptothecin, reference compound], for which the “Log2 (fold)” value under setting [1] is listed as −1.619.
`Oc1cc2c(cc1O)CN(C(=S)NCCc1ccc(Cl)cc1)CCC2` [capsazepine]: the “Log2 (fold) of luciferase activity relative to DMSO controls” value is given as −0.030 and the “Fold (luciferase activity relative to DMSO controls)” value came to 0.979 fold.
As for `O[C@H]1[C@H](O)[C@@H](O)CN2CC[C@H](O)[C@H]12` [castanospermine], the “Log2 (fold) (luciferase activity, log2 of the fold difference relative to DMSO controls)” value was −0.351 and the “Fold (luciferase activity, fold difference relative to DMSO controls)” value turned out to be 0.784.
Turning to `Clc1cccc(Cl)c1N=C1NCCN1` [clonidine], the “Log2 (fold) of luciferase activity relative to DMSO controls” value turned out to be 0.087 and the “Fold (luciferase activity relative to DMSO controls)” value was found to be 1.062 fold.
In the case of `CN1CCN(C2=Nc3cc(Cl)ccc3Nc3ccccc32)CC1` [clozapine], the “Log2 (fold) of luciferase activity relative to DMSO controls” value is on record as −0.126 and the “Fold (luciferase activity relative to DMSO controls)” value came out at 0.916 fold.
With `C[C@@H]1C[C@@H]([C@H](O)CC2CC(=O)NC(=O)C2)C(=O)[C@@H](C)C1` [cycloheximide, reference compound], the “Log2 (fold) (luciferase activity, log2 of the fold difference relative to DMSO controls)” value is given as −1.568 and the “Fold (luciferase activity, fold difference relative to DMSO controls)” value amounted to 0.337. Further, under setting [1], the Fold was 0.337 fold.
In the case of `CCOC(=O)CN1C(=O)CC(C[C@@H](O)[C@@H]2C[C@@H](C)C[C@H](C)C2=O)CC1=O` [cycloheximide-N-ethylethanoate], the “Log2 (fold) of luciferase activity relative to DMSO controls” value is listed as −0.014 and the “Fold (luciferase activity relative to DMSO controls)” value stood at 0.990 fold.
As to `C=C1[C@@H](C)[C@H]2[C@H](Cc3ccccc3)NC(=O)[C@]23OC(=O)/C=C/[C@H](O)CCC[C@@H](C)C/C=C/[C@H]3[C@@H]1O` [cytochalasin B], the “Log2 (fold) (luciferase activity, log2 of the fold difference relative to DMSO controls)” value is given as −0.677 and the “Fold (luciferase activity, fold difference relative to DMSO controls)” value is 0.625.
On to `C=C1[C@@H](C)[C@H]2[C@H](Cc3ccccc3)NC(=O)[C@]23[C@H](OC(C)=O)/C=C/[C@@](C)(O)C(=O)[C@@H](C)C/C=C/[C@H]3[C@@H]1O` [cytochalasin D], for which the “Log2 (fold) (luciferase activity, log2 of the fold difference relative to DMSO controls)” value is on record as −0.276 and the “Fold (luciferase activity, fold difference relative to DMSO controls)” value is listed as 0.826.
On to `COc1c(C=O)c(O)cc2c1C(=O)c1ccccc1C2=O` [damnacanthal], for which the “Log2 (fold) (luciferase activity, log2 of the fold difference relative to DMSO controls)” value is on record as −0.482 and the “Fold (luciferase activity, fold difference relative to DMSO controls)” value is reported as 0.716.
For `C=C1O[C@@](CO)(n2cnc3c(N)ncnc32)[C@H](O)[C@@H]1O` [decoyinine], in that order: −0.298 and 0.813.
Take `OC[C@H]1NC[C@@H](O)[C@@H](O)[C@@H]1O` [deoxymannojirimycin(1)]: the “Log2 (fold) of luciferase activity relative to DMSO controls” value is listed as −0.125 and the “Fold (luciferase activity relative to DMSO controls)” value was 0.917 fold.
As to `OC[C@H]1NC[C@H](O)[C@@H](O)[C@@H]1O` [deoxynorjrimycin(1)], the “Log2 (fold) of luciferase activity relative to DMSO controls” value is listed as −0.154 and the “Fold (luciferase activity relative to DMSO controls)” value is 0.899 fold.
`C[C@@H]1C[C@H]2[C@@H]3CCC4=CC(=O)C=C[C@]4(C)[C@@]3(F)[C@@H](O)C[C@]2(C)[C@@]1(O)C(=O)CO` [dexamethasone]: the “Log2 (fold) (luciferase activity, log2 of the fold difference relative to DMSO controls)” value is −0.245 and the “Fold (luciferase activity, fold difference relative to DMSO controls)” value turned out to be 0.844.
In the case of `CCCC(=O)Nc1ncnc2c1ncn2[C@@H]1O[C@@H]2COP(=O)(O)O[C@H]2[C@H]1OC(=O)CCC` [dibutyrylcyclic AMP], the “Log2 (fold) (luciferase activity, log2 of the fold difference relative to DMSO controls)” value is reported as −0.701 and the “Fold (luciferase activity, fold difference relative to DMSO controls)” value stood at 0.615.
For `CCCC(=O)Nc1nc2c(ncn2C2O[C@H]3COP(=O)(O)O[C@@H]3[C@@H]2OC(=O)CCC)c(=O)[nH]1` (stereo partly shown) [dibutyrylcyclic GMP], in that order: −0.342 and 0.789.
Turning to `[Cl-].c1ccc2c(c1)[I+]c1ccccc1-2` [diphenyleneiodonium Cl], the “Log2 (fold) (luciferase activity, log2 of the fold difference relative to DMSO controls)” value was −0.576 and the “Fold (luciferase activity, fold difference relative to DMSO controls)” value was 0.671.
For `OCCN(CCO)c1nc(N2CCCCC2)c2nc(N(CCO)CCO)nc(N3CCCCC3)c2n1` [dipyridamole], in that order: −0.431 and 0.742.
In the case of `COc1cccc2c1C(=O)c1c(O)c3c(c(O)c1C2=O)C[C@@](O)(C(=O)CO)C[C@@H]3O[C@H]1C[C@H](N)[C@H](O)[C@H](C)O1` [doxorubicin], the “Log2 (fold) (luciferase activity, log2 of the fold difference relative to DMSO controls)” value is listed as −0.520 and the “Fold (luciferase activity, fold difference relative to DMSO controls)” value turned out to be 0.697.
Regarding `C=C[C@@]1(C)CC(=O)[C@]2(O)[C@@]3(C)[C@@H](O)CCC(C)(C)[C@@H]3[C@H](O)[C@H](OC(C)=O)[C@@]2(C)O1` [forskolin], the “Log2 (fold) (luciferase activity, log2 of the fold difference relative to DMSO controls)” value is −0.449 and the “Fold (luciferase activity, fold difference relative to DMSO controls)” value came out at 0.732.
In the same order, the values of `COC1=C2C[C@@H](C)C[C@H](OC)[C@H](O)[C@@H](C)/C=C(\C)[C@H](OC(N)=O)[C@@H](OC)/C=C\C=C(/C)C(=O)NC(=CC1=O)C2=O` [geldanamycin] are −0.772 and 0.586.
For the molecule `O=c1c(-c2ccc(O)cc2)coc2cc(O)cc(O)c12` [genistein], the “Log2 (fold) (luciferase activity, log2 of the fold difference relative to DMSO controls)” value is −0.275 and the “Fold (luciferase activity, fold difference relative to DMSO controls)” value is on record as 0.826.
Take `COc1ccc2c(c1)c(CC(=O)O)c(C)n2C(=O)c1ccc(Cl)cc1` [indomethacin]: the “Log2 (fold) (luciferase activity, log2 of the fold difference relative to DMSO controls)” value is −0.549 and the “Fold (luciferase activity, fold difference relative to DMSO controls)” value is 0.683.
In the same order, the values of `C[C@H](CCC(=O)O)C[C@H](C)C[C@H](C)C(=O)/C=C(\O)[C@H](C)C[C@H](C)C/C=C/[C@@H](C)[C@@H](O)[C@@H](C)[C@@H](O)C[C@@H]1CC[C@@](C)([C@H]2CC[C@@](C)([C@@H](C)O)O2)O1` [ionomycin] are −0.591 and 0.664.
Turning to `CCCC[C@@H](C)/C=C(C)/C=C(\C)C(=O)NC1=C[C@@](O)(/C=C/C=C/C=C/C(=O)NC2=C(O)CCC2=O)[C@@H]2O[C@@H]2C1=O` [manumycin A], the “Log2 (fold) (luciferase activity, log2 of the fold difference relative to DMSO controls)” value is on record as −0.233 and the “Fold (luciferase activity, fold difference relative to DMSO controls)” value amounted to 0.851.
Regarding `C=C1[C@@H](O)[C@@H]2O[C@]3(CC[C@H](/C=C/[C@@H](C)[C@@H]4CC(C)=C[C@@]5(O[C@H](C[C@@](C)(O)C(=O)O)CC[C@H]5O)O4)O3)CC[C@H]2O[C@@H]1[C@@H](O)C[C@H](C)[C@H]1O[C@@]2(CCCCO2)CC[C@H]1C` [okadaic acid, reference compound], the “Log2 (fold) (luciferase activity, log2 of the fold difference relative to DMSO controls)” value is given as −1.713 and the “Fold (luciferase activity, fold difference relative to DMSO controls)” value stood at 0.305. This molecule also displayed a Fold under setting [1] of 0.305 fold.
With `CC[C@@H]1/C=C/C=C/C[C@H](C)[C@H](O)[C@](C)(O)C(=O)[C@H](C)[C@@H](O)[C@H](C)C(=O)[C@H](C)[C@@H](O)[C@H](C)/C=C/C(=O)O[C@H]2[C@@H](C)[C@@H](CC1)O[C@@]1(CC[C@@H](C)[C@@H](C[C@H](C)O)O1)[C@@H]2C` [oligomycin A, reference compound], the “Log2 (fold) (luciferase activity, log2 of the fold difference relative to DMSO controls)” value is recorded as −1.131 and the “Fold (luciferase activity, fold difference relative to DMSO controls)” value worked out at 0.457. The Fold under setting [1] worked out at 0.457 fold.
As to `Cn1cnc2c(NCc3ccccc3)nc(NCCO)nc21` [olomoucine], the “Log2 (fold) (luciferase activity, log2 of the fold difference relative to DMSO controls)” value was −0.406 and the “Fold (luciferase activity, fold difference relative to DMSO controls)” value is on record as 0.755.
